Results on eleven compounds are retold here after ChEMBL document CHEMBL1201862, “PubChem BioAssay data set” (2004).

What all share (experiment): NCI anticancer screen, dose series, 48 h
Assay [1] has as its system RXF 393.
Assay [2] has as its system NCI/ADR-RES.
Assay [3] concerns TK-10.
Assay [4] concerns UACC-257.
In assay [5] the test system is OVCAR-3.
Assay [6] concerns PC-3.
Assay [7] relates to OVCAR-8.
In assay [8] the test system is M14.
For assay [9], the system named is ACHN.
In assay [10] the test system is A498.
Assay [11] concerns SN12C.
Assay [12] deals with NCI-H23.
Assay [13] relates to NCI-H460.
Assay [14] relates to KM12.
Assay [15] relates to MDA-N.
Assay [16] concerns RPMI-8226.
Assay [17] concerns NCI-H522.
The subject of assay [18] is MOLT-4.
For assay [19], the system named is EKVX.
Assay [20] deals with SR.

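Values below derive from 48-hour exposures of cells grown in 96-well plates, with endpoints linearly interpolated between the two concentrations bracketing the appropriate inhibition level. At the GI50, growth is halved.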 Activity calls are given as the source filed them. No stated cut-off is given here; in the data, active = GI50 up to about 1.1 µM and inactive = higher.

Turning to `Cc1ccc(S(=O)(=O)n2c3ccc(Br)cc3c3nc4ccccc4nc32)cc1`, the GI50 in assay [1], in assay [2], in [3], in assay [4], in [5] and in assay [6] was > 100 µM (inactive) throughout. Besides, the GI50 in [7], in [8], in assay [9], in assay [10], in assay [11] and in assay [12] was > 100 µM (inactive) each time. Moreover, the GI50 in [13] was > 100 µM (inactive); in assay [14], > 100 µM (inactive); in assay [15], > 100 µM (inactive); in assay [16], > 100 µM (inactive); in assay [17] it was 0.649 µM (active); in assay [18] it was > 100 µM (inactive).

Consider `Cc1cc(C)nc(NS(=O)(=O)c2ccc(NNc3c4ccccc4nc4c(C(=O)Nc5ccc(S(=O)(=O)N=C(N)N)cc5)cccc34)cc2)n1`, for which the GI50 in assay [1] was > 100 µM (inactive); in [2] it was > 100 µM (inactive); in assay [3] it was > 100 µM (inactive); in [4] it was > 100 µM (inactive); in [5] it was 31.8 µM (inactive); in [6], 31.6 µM (inactive). The GI50 in [7] is 52.4 µM (inactive); in [8], 97.9 µM (inactive); in assay [9], 45 µM (inactive); in [19], 30.5 µM (inactive); in assay [11] it was 64.1 µM (inactive); in [12], 55.8 µM (inactive). Moreover, the GI50 in assay [13] was 47.4 µM (inactive); in assay [14], 34.7 µM (inactive); in assay [15], 49.5 µM (inactive); in [16], 93.3 µM (inactive); in assay [17] it was 36.6 µM (inactive); in assay [18] it was 34.9 µM (inactive). Further, the GI50 in [20] is 27.5 µM (inactive).

On to `COc1nc2ccc(CNc3ccc(C(=O)O)cc3)cc2nc1OC`, for which the GI50 in [1], in assay [2], in assay [3], in assay [4], in assay [5] and in assay [6] was > 10 µM (inactive) each time. In addition, the GI50 in assay [7], in assay [8], in [9], in [10], in [19] and in assay [11] was > 10 µM (inactive) throughout. Further, the GI50 in [12], in assay [13], in [14], in assay [15], in assay [16] and in assay [17] was > 10 µM (inactive) in each case. In assay [18], the GI50 was > 10 µM (inactive).

Consider `Cc1cc(=O)oc2c(C)c3oc(CBr)c(Br)c3cc12`, for which the GI50 in assay [1] is 19.8 µM (inactive); in assay [2], 33.7 µM (inactive); in assay [3], 56.4 µM (inactive); in assay [4] it was 54.5 µM (inactive); in assay [5], > 100 µM (inactive); in assay [6] it was 40.4 µM (inactive). The GI50 is 24.7 µM (inactive) in assay [7]; 22 µM (inactive) in assay [8]; 35.6 µM (inactive) in assay [9]; 92.3 µM (inactive) in [19]; 20.1 µM (inactive) in assay [11]; 39 µM (inactive) in assay [12]. In addition, the GI50 in assay [13] is 18.9 µM (inactive); in assay [14] it was 26.8 µM (inactive); in [15], 30.4 µM (inactive); in assay [16], 16.3 µM (inactive); in assay [17], 14.7 µM (inactive); in assay [18], 8.59 µM (inactive). Also, the GI50 in assay [20] was 27.7 µM (inactive).

Regarding `[N-]=[N+]=Nc1c(Cl)c(=O)n(-c2ccccc2)c2ccccc12`, the GI50 is 16.4 µM (inactive) in assay [1]; 24.2 µM (inactive) in assay [2]; > 10 µM (inactive) in assay [3]; 24.2 µM (inactive) in assay [4]; 17.3 µM (inactive) in assay [5]; 18.7 µM (inactive) in assay [6]. Also, the GI50 in [8] was 16.6 µM (inactive); in [9] it was 21.5 µM (inactive); in assay [11] it was 22 µM (inactive); in assay [12], 19.6 µM (inactive); in assay [13], 34.8 µM (inactive); in assay [14], 39.5 µM (inactive). For the same compound, the GI50 was 24.5 µM (inactive) in assay [15], 34 µM (inactive) in assay [16], 8.43 µM (inactive) in assay [18] and 31.4 µM (inactive) in [20].

Consider `CCOC(=O)c1nc[nH]c1/N=N/N(C)N`, for which the GI50 in assay [1], in assay [2], in assay [3], in [4], in assay [5] and in assay [6] was > 100 µM (inactive) throughout. The GI50 is > 100 µM (inactive) in assay [7]; > 100 µM (inactive) in assay [8]; > 100 µM (inactive) in [9]; 40.6 µM (inactive) in assay [10]; > 100 µM (inactive) in [19]; > 100 µM (inactive) in [11]. Moreover, the GI50 in assay [12] was > 100 µM (inactive); in assay [13], 25.3 µM (inactive); in assay [14], 1.87 µM (inactive); in assay [15] it was > 100 µM (inactive); in assay [16], 46.6 µM (inactive); in [17], 22.4 µM (inactive). Besides, the GI50 in [18] is 44.2 µM (inactive).

As to `CCN(CCCN(CC)C(=O)Nc1c(C)cccc1C)C(=O)Nc1c(C)cccc1C`, the GI50 is 43.1 µM (inactive) in assay [1]; > 100 µM (inactive) in assay [2]; > 100 µM (inactive) in assay [3]; > 100 µM (inactive) in assay [4]; > 100 µM (inactive) in assay [6]; > 100 µM (inactive) in [7]. The GI50 in assay [8], in assay [9], in assay [10], in assay [19], in [11] and in assay [12] was > 100 µM (inactive) in each case. Besides, the GI50 in [13], in assay [14], in [15], in assay [16], in assay [17] and in assay [18] was > 100 µM (inactive) each time.

Take `CC(C)=C=CP(=O)(O)c1ccccc1`: the GI50 in assay [2], in assay [3], in assay [4], in assay [5], in assay [6] and in assay [7] was > 100 µM (inactive) in each case. Besides, the GI50 in assay [8], in [9], in assay [10], in assay [19], in assay [11] and in assay [12] was > 100 µM (inactive) each time. Besides, the GI50 in assay [13], in assay [14], in assay [15], in assay [17] and in [20] was > 100 µM (inactive) each time.

As to `Cc1cc2nc3ccccc3n2c2ccccc12`, the GI50 in assay [1], in assay [2], in assay [3], in assay [4], in assay [5] and in [6] was > 10 µM (inactive) each time. For the same compound, the GI50 in assay [7] is > 10 µM (inactive); in assay [8], > 10 µM (inactive); in [9], > 10 µM (inactive); in assay [19] it was 1.81 µM (inactive); in [11], > 10 µM (inactive); in assay [12], > 10 µM (inactive). In addition, the GI50 in [13] was 4.3 µM (inactive); in assay [14] it was > 10 µM (inactive); in assay [15] it was > 10 µM (inactive); in assay [16] it was > 10 µM (inactive); in assay [17], > 10 µM (inactive); in assay [18] it was > 10 µM (inactive). Besides, the GI50 in [20] is > 10 µM (inactive).

`O=C(c1ccccc1)n1cc(-c2ccccc2)c2c(=O)nc[nH]c21`: the GI50 in assay [1], in assay [2], in assay [3], in assay [4], in assay [5] and in [6] was > 100 µM (inactive) throughout. Moreover, the GI50 in assay [7], in assay [8], in [9], in assay [10], in assay [19] and in [11] was > 100 µM (inactive) in each case. The GI50 in assay [12], in assay [14], in assay [15], in assay [16], in assay [17] and in assay [18] was > 100 µM (inactive) each time.

Take `OC(C1CCCCCCCCCC1)C(O)C1CCCCCCCCCC1` (stereo unspecified): the GI50 in assay [1] is 93.1 µM (inactive); in assay [2] it was > 100 µM (inactive); in assay [3], > 100 µM (inactive); in assay [4] it was > 100 µM (inactive); in assay [5], > 100 µM (inactive); in [6], > 100 µM (inactive). Besides, the GI50 in assay [7] is > 100 µM (inactive); in [8], > 100 µM (inactive); in assay [9], > 100 µM (inactive); in assay [19], > 100 µM (inactive); in assay [11] it was > 100 µM (inactive); in [12], 43.2 µM (inactive). Further, the GI50 is > 100 µM (inactive) in assay [13]; > 100 µM (inactive) in assay [14]; > 100 µM (inactive) in assay [15]; > 100 µM (inactive) in assay [16]; 61 µM (inactive) in assay [17]; 37.1 µM (inactive) in [18]. Besides, the GI50 in assay [20] is > 100 µM (inactive).
